Laboratory results taken from patent US12180178B2, “Heteroaryl azole compound and pest control agent” (NIPPON SODA CO., LTD., priority 2018, dated 2024).
Read-outs that look alike come from different tables or passages of the source.

Assays:
Format in all cases: in vivo
Mythimna separata = assay: Test of Efficacy on Mythimna separata (test feed); details: 1 μl of emulsion (I) (5% active ingredient) in 0.8 g artificial feed; second instar larvae; 25° C.; fifth day
Protocol: 5 parts of the heteroaryl azole compound of the present invention, 93.6 parts of dimethylformamide, and 1.4 parts of polyoxyethylene alkyl aryl ether were mixed and dissolved to prepare emulsion (I) containing 5% of the active ingredient. For a control, 98.5 parts of dimethylformamide and 1.5 parts of polyoxyethylene alkyl aryl ether were mixed and dissolved to prepare emulsion (II). An insecticidal rate was calculated according to the following expression: Insecticidal rate (%)=(The number of dead insects/The number of tested insects)×100 0.8 g of commercially available artificial feed (Insecta LFS, manufactured by Nosan Corp.) and 1 μl of the emulsion (I) were well mixed to obtain test feed. A plastic test container (capacity: 1.4 ml) was packed with 0.2 g of the test feed per treatment plot. Then, two second instar larvae of Mythimna separata were inoculated to each treatment plot. A plastic lid was put on the test container so as to prevent escape of the second instar larvae of Mythimna separata. The container was placed in a thermostat chamber of 25° C. On the fifth day, the insecticidal rate and the food intake were examined. The test was conducted in duplicate. The insecticidal rate and the food intake of a control plot were examined in the same way as in Test Example 1 except that the emulsion (I) was changed to the emulsion (II).

Plutella xylostella = assay: Test of Efficacy on Plutella xylostella (cabbage leaf dip); details: foliar, 72 h, cabbage leaves dipped 30 seconds, second instar larvae, after 3 days, read-out: insecticidal rate
Protocol: 5 parts of the heteroaryl azole compound of the present invention, 93.6 parts of dimethylformamide, and 1.4 parts of polyoxyethylene alkyl aryl ether were mixed and dissolved to prepare emulsion (I) containing 5% of the active ingredient. An insecticidal rate was calculated according to the following expression: Insecticidal rate (%)=(The number of dead insects/The number of tested insects)×100 The emulsion (I) was diluted with water such that the concentration of the compound of the present invention was 125 ppm. Cabbage leaves were dipped in the dilution for 30 seconds. The resulting cabbage leaves were placed in a petri dish. Five second instar larvae of Plutella xylostella were released thereto. The petri dish was placed in a thermostat chamber having a temperature of 25° C. and a humidity of 60%. Life and death were determined after 3 days from the release of the insects, and the insecticidal rate was calculated. The test was conducted in duplicate.

Aphis craccivora = assay: Test of Efficacy on Aphis craccivora (spray on black-eyed peas); details: 96 h, read-out: insecticidal rate
Protocol: 5 parts of the heteroaryl azole compound of the present invention, 93.6 parts of dimethylformamide, and 1.4 parts of polyoxyethylene alkyl aryl ether were mixed and dissolved to prepare emulsion (I) containing 5% of the active ingredient.
An insecticidal rate was calculated according to the following expression: Insecticidal rate (%)=(The number of dead insects/The number of tested insects)×100
Seedlings of black-eyed peas were raised in 10-cm pots. Aphis craccivora nymphs were inoculated onto primary leaves. The emulsion (I) was diluted with water such that the concentration of the compound of the present invention was 125 ppm. The dilution was sprayed to the black-eyed peas parasitized by the Aphis craccivora nymphs. The black-eyed peas were placed in a thermostat chamber having a temperature of 25° C. and a humidity of 60%. Life and death of Aphis craccivora were determined after 4 days from the spraying, and the insecticidal rate was calculated. The test was conducted in duplicate.

[1] = 125 ppm, sprayed to black-eyed peas, nymphs, after 4 days

| SMILES | insecticidal rate or food intake as compared with the control plot (Mythimna separata) | pest or weed control at 125 ppm (Plutella xylostella) [%] | pest or weed control at 125 ppm (Aphis craccivora; [1]) [%] | pest or weed control at 125 ppm (Aphis craccivora) [%] |
| --- | --- | --- | --- | --- |
| CCS(=O)(=O)c1cc(C2CC2)cnc1-c1ncn(/C=C(\F)C(F)(F)C(F)(F)F)n1 [b-10] | insecticidal rate of 100% for Mythimna separata or a food intake of 10% or less as compared with the control plot | – | – | – |
| CCS(=O)(=O)c1cc(-c2ccccn2)cnc1-c1ncn(-c2ccc(OC(F)(F)F)cc2)c1Br [d-23] | – | ≥ 80 | – | – |
| CCS(=O)(=O)c1cc(-c2ccccn2)cnc1-c1ncn(-c2ccc(OC(F)(F)F)cc2)c1C [d-25] | insecticidal rate of 100% for Mythimna separata or a food intake of 10% or less as compared with the control plot | ≥ 80 | ≥ 80 | – |
| CCS(=O)(=O)c1cc(-c2ccccn2)cnc1-c1ncn(-c2ccc(OC(F)(F)C(F)F)cc2)n1 [d-16] | insecticidal rate of 100% for Mythimna separata or a food intake of 10% or less as compared with the control plot | ≥ 80 | ≥ 80 | – |
| CCS(=O)(=O)c1cc(C(F)(F)F)cnc1-c1ncn(CC(F)(F)C(F)(F)C(F)(F)F)c1C [a-5] | insecticidal rate of 100% for Mythimna separata or a food intake of 10% or less as compared with the control plot | – | – | – |
| CCS(=O)(=O)c1cc(C2CC2)cnc1-c1ncn(CC(F)(F)C(F)(F)C(F)(F)F)c1C [c-6] | insecticidal rate of 100% for Mythimna separata or a food intake of 10% or less as compared with the control plot | – | ≥ 80 | – |
| CCS(=O)(=O)c1cc(C2CC2)cnc1-c1ncn(CC(F)(F)C(F)(F)F)c1C [c-3] | – | – | ≥ 80 | – |
| CCS(=O)(=O)c1cnc(-c2ncccn2)nc1-c1ncn(-c2ccc(C(F)(F)C(F)(F)F)cc2)n1 [d-18] | – | – | ≥ 80 | – |
| CCS(=O)(=O)c1cc(-c2ncccn2)cnc1-c1ncn(CC(F)(F)C(F)(F)C(F)(F)C(F)F)c1C [a-15] | insecticidal rate of 100% for Mythimna separata or a food intake of 10% or less as compared with the control plot | – | – | – |
| CCS(=O)(=O)c1cc(C2CC2)cnc1-c1ncn(/C=C(\F)C(F)(F)F)c1C [a-14] | insecticidal rate of 100% for Mythimna separata or a food intake of 10% or less as compared with the control plot | – | – | – |
| CCS(=O)(=O)c1ccc(-n2cncn2)nc1-c1ncn(-c2ccc(OC(F)(F)F)cc2)n1 [d-11] | insecticidal rate of 100% for Mythimna separata or a food intake of 10% or less as compared with the control plot | – | ≥ 80 | – |
| CCS(=O)(=O)c1cc(C2CC2)cnc1-c1ncn(-c2ccc(SC(F)(F)F)cc2)n1 [d-9] | insecticidal rate of 100% for Mythimna separata or a food intake of 10% or less as compared with the control plot | – | – | – |
| CCS(=O)(=O)c1cc(-c2ncccn2)cnc1-c1ncn(-c2ccc(C(F)(F)F)cn2)n1 [d-5] | insecticidal rate of 100% for Mythimna separata or a food intake of 10% or less as compared with the control plot | ≥ 80 | – | – |
| CCS(=O)(=O)c1ccc(-n2cncn2)nc1-c1ncn(-c2ccc(OC(F)(F)F)cc2)c1Br [d-26] | insecticidal rate of 100% for Mythimna separata or a food intake of 10% or less as compared with the control plot | ≥ 80 | ≥ 80 | – |
| CCS(=O)(=O)c1cc(-c2ccccn2)cnc1-c1ncn(CC(F)(F)C(F)(F)F)c1C [c-1, 5′-(ethylsulfonyl)-6′-(5-methyl-1-(2,2,3,3,3-pentafluoropropyl)-1H-imidazol-4-yl)-2,3′-bipyridine] | insecticidal rate of 100% for Mythimna separata or a food intake of 10% or less as compared with the control plot | – | ≥ 80 | – |
| CCS(=O)(=O)c1ccc(-n2cncn2)nc1-c1ncn(-c2ccc(OC(F)(F)F)cc2)c1C [d-27] | insecticidal rate of 100% for Mythimna separata or a food intake of 10% or less as compared with the control plot | ≥ 80 | ≥ 80 | – |

| SMILES | insecticidal rate or food intake as compared with the control plot (Mythimna separata) | pest or weed control at 125 ppm (Plutella xylostella) [%] | pest or weed control at 125 ppm (Aphis craccivora; [1]) [%] | pest or weed control at 125 ppm (Aphis craccivora) [%] |
| --- | --- | --- | --- | --- |
| CCS(=O)(=O)c1cc(-c2cc(F)cc(F)c2)cnc1-c1ncn(/C=C(\F)C(F)(F)C(F)(F)F)n1 [b-3] | insecticidal rate of 100% for Mythimna separata or a food intake of 10% or less as compared with the control plot | – | – | – |
| CCS(=O)(=O)c1cc(-c2ncccn2)cnc1-c1ncn(/C=C(\F)C(F)(F)C(F)(F)F)n1 [b-12] | insecticidal rate of 100% for Mythimna separata or a food intake of 10% or less as compared with the control plot | – | – | – |
| CCS(=O)(=O)c1cc(C2(C)CC2)cnc1-c1ncn(/C=C(\F)C(F)(F)C(F)(F)C(F)(F)F)n1 [b-22] | insecticidal rate of 100% for Mythimna separata or a food intake of 10% or less as compared with the control plot | – | – | – |
| CCS(=O)(=O)c1cc(C2CC2)cnc1-c1ncn(-c2ccc(C(F)(F)F)cn2)n1 [d-4, 5-cyclopropyl-3-(ethylsulfonyl)-2-(1-(5-(trifluoromethyl)pyridin-2-yl)-1H-1,2,4-triazol-3-yl)pyridine] | insecticidal rate of 100% for Mythimna separata or a food intake of 10% or less as compared with the control plot | ≥ 80 | ≥ 80 | – |
| CCS(=O)(=O)c1cc(C2CC2)cnc1-c1ncn(-c2ccc(OC(F)(F)C(F)F)cc2)n1 [d-15] | insecticidal rate of 100% for Mythimna separata or a food intake of 10% or less as compared with the control plot | ≥ 80 | – | – |
| CCS(=O)(=O)c1ccc(S(=O)(=O)CC)c(-c2cn(-c3ccc(OC(F)(F)F)cc3)cn2)n1 [d-21] | – | – | ≥ 80 | – |
| CCS(=O)(=O)c1ccc(Cl)nc1-c1ncn(-c2ccc(OC(F)(F)F)cc2)n1 [d-10] | insecticidal rate of 100% for Mythimna separata or a food intake of 10% or less as compared with the control plot | – | ≥ 80 | – |
| CCS(=O)(=O)c1cc(C(F)(F)F)cnc1-c1ncn(/C=C(\F)C(F)(F)C(F)(F)F)c1C [a-4] | insecticidal rate of 100% for Mythimna separata or a food intake of 10% or less as compared with the control plot | – | – | – |
| CCS(=O)(=O)c1cc(Br)cnc1-c1ncn(/C=C(\F)C(F)(F)C(F)(F)C(F)F)n1 [b-20] | insecticidal rate of 100% for Mythimna separata or a food intake of 10% or less as compared with the control plot | – | – | – |
| CCS(=O)(=O)c1cc(C2(C)CC2)cnc1-c1ncn(-c2ccc(OC(F)(F)F)cc2)n1 [d-14] | insecticidal rate of 100% for Mythimna separata or a food intake of 10% or less as compared with the control plot | – | ≥ 80 | – |
| CCS(=O)(=O)c1cc(-c2ncccn2)cnc1-c1ncn(CC(F)(F)C(F)(F)F)c1C [c-2] | insecticidal rate of 100% for Mythimna separata or a food intake of 10% or less as compared with the control plot | – | ≥ 80 | – |
| CCS(=O)(=O)c1ccc(-n2cncn2)nc1-c1ncn(-c2ccc(C(F)(F)F)cn2)n1 [d-3] | insecticidal rate of 100% for Mythimna separata or a food intake of 10% or less as compared with the control plot | – | ≥ 80 | – |
| CCS(=O)(=O)c1cc(Br)cnc1-c1ncn(CC(F)(F)C(F)(F)F)c1C [c-4] | – | – | ≥ 80 | – |
| C=C(C)c1cnc(-c2ncn(-c3ccc(OC(F)(F)F)cc3)n2)c(S(=O)(=O)CC)c1 [d-13] | insecticidal rate of 100% for Mythimna separata or a food intake of 10% or less as compared with the control plot | – | – | – |
| CCS(=O)(=O)c1cc(Br)cnc1-c1ncn(CC(F)(F)C(F)(F)C(F)(F)F)c1C [c-7] | – | – | – | ≥ 80 |
